{"source": "patent US8221736B2", "about": "“Semiochemical” (Rothamsted Research Limited, priority 1999, dated 2012)", "key": {"[1]": {"system": "aphid parasitoid Aphidius ervi", "assay": "Wind tunnel single choice test of A. ervi with synthetic compounds on filter paper", "format": "in vivo", "conditions": "10 μg on filter paper, hexane control 26.7", "text": "Since semiochemicals acting as repellents or inhibitors of host attractancy for herbivorous insects are often involved in predation or parasitism, the activity of cis-jasmone was also investigated at higher trophic levels. […] These experiments indicate a behavioural role for cis-jasmone in influencing interactions between plants, herbivorous insects and their predators and parasitoids. Naive female A. ervi were flown in a wind tunnel, as described in J. Chem. Ecol. 16, 381-396 (1996) (Poppy et al.). The parasitoids were released 25 cm downwind (single choice tests) or 40 cm downwind (dual choice test) of the target, which was either a plant or a synthetic compound (10 μg in 10 μl hexane) placed on a 2×1 cm strip of filter paper (Whatman No. 1) surrounded by a ring of green crêpe paper. The proportions of parasitoids responding with an oriented flight to the synthetic chemicals were calculated each day on 3 separate days. These values were then subjected to a logit transformation to normalize the data before being analysed by ANOVA followed by Tukey post-hoc tests. The number of parasitoids orienting upwind to the single plant target were recorded and subjected to a χ^2 contingency test (Pearson method on Genstat—see Genstat 5 Committee. Genstat 5 Reference Manual, Release 3 (Clarendon Press, Oxford, 1993)) to determine whether an orienting response was linked to the type of plant treatment. The numbers orienting to each plant in the dual choice test were analysed by a χ^2 to determine whether one plant was more attractive than the other."}, "[2]": {"system": "black bean aphid, Aphis fabae", "conditions": "J. Chem. Ecol. 20 (1994), Pettersson et al., Hardie et al.; cited from earlier work"}, "[3]": {"system": "grain aphid, Sitobion avenae", "conditions": "J. Chem. Ecol. 20 (1994), Pettersson et al., Hardie et al.; cited from earlier work"}, "[4]": {"system": "D251 sequence in Vicia faba plants", "assay": "Differential display and northern blot of gene-specific sequence D251", "format": "in vivo", "conditions": "northern blot, versus air", "procedure": "Total RNA was isolated from stem or leaf tissue of plants exposed to air, methyl jasmonate or cis-jasmone. 10 μg RNA per sample was loaded and separated on a formaldehyde gel (Panel A). The samples were then transferred to a nylon membrane and probed with the D251 sequence (Panel B). Lane 1=air treatment (control); lane 2=cis-jasmone treatment; lane 3=methyl jasmonate treatment. In the case of RNA isolated from leaf tissue, only cis-jasmone treatment results in upregulation. In order to determine if cis-jasmone was capable of inducing alterations in plant gene expression, the sensitive technique of differential display was carried out on RNA extracted from plants which had been exposed to air, methyl jasmonate or cis-jasmone. […] To confirm this observation, bands of interest were recovered by excision from the dried gel and re-amplified with the appropriate pair of oligonucleotide primers. The resulting PCR products were cloned and sequenced to confirm the homogeneous nature of the amplified product. These sequences were then used to probe RNA isolated from control or treated V. faba plants. […] It is important to note that the nature of the differential display technique generates short gene-specific probes, containing mainly 3′ untranslated regions of transcribed sequences, and therefore the functional part of the differentially expressed gene is unknown. Thus, using differential display and confirmatory northern blotting, we have shown that methyl jasmonate and cis-jasmone have apparently distinct effects on plant gene expression. […] Thus, the two compounds have distinct effect on plant gene expression and the response to these signalling compounds may be tissue-specific."}, "[5]": {"system": "broad bean, V. faba (cv The Sutton)", "assay": "Induction of volatile release by bean plants (air entrainment, GC/GC-MS)", "format": "in vivo, Vicia faba", "conditions": "24 hour exposure at 100 μg/l in air; 48 hour entrainments", "procedure": "A possible role for the compound as an airborne plant signal was investigated using the broad bean, V. faba (cv The Sutton). Plants were kept for 24 hours in clean air or in air incorporating cis-jasmone at 100 μg/l; subsequently, samples of volatiles released by the plants were obtained by entrainment over 4 periods of 48 hours, i.e. up to 192 hours after the end of the treatment. The cis-jasmone itself was undetectable after 48 hours. […] There was also, from some replicates, enhancement of (E,E)-α-farnesene, (−)-β-caryophyllene and (E)-4,8-dimethyl-1,3,7-nonatriene. These compounds have all been implicated in herbivorous insect-induced production and increased parasitoid foraging. The nonatriene can also be produced innately by plants imitating damage for defence against herbivores and which are thus attractive to parasitoids.\nBean plants, V. faba (cv The Sutton) were grown under standard glasshouse conditions until the 2-4 leaf stage when they were rinsed free of soil and transplanted into baked glass jars containing washed sand, with 3 plants per jar. These were left for 1-2 days to acclimatize. Plants to be treated (three jars of three plants each) were sealed in a 25 l glass tank for 24 hours with either cis-jasmone or methyl jasmonate (2.5 mg) applied to a piece of filter paper (Whatman No. 1) placed on the floor of the tank. […]"}}, "note": "Marks after values point to notes of the source that are not given here.", "data": [{"compound": "C=C/C(C)=C/C/C=C(\\C)CCC=C(C)C", "note": "[(E,E)-α-farnesene]", "values": [{"measurement": "% showing oriented flight", "setting": "[1]", "result": "60.9^a %"}]}, {"compound": "C=C/C(C)=C/CC=C(C)C", "note": "[(E)-β-ocimene]", "values": [{"measurement": "% showing oriented flight", "setting": "[1]", "result": "48.8^a %"}]}, {"compound": "COC(=O)c1ccccc1O", "note": "[Methyl salicylate]", "values": [{"measurement": "behavioural effect on black bean aphid", "setting": "[2]", "result": "repelling"}, {"measurement": "behavioural effect on cereal aphids including the grain aphid", "setting": "[3]", "result": "repelling"}]}, {"compound": "CC/C=C\\CC1C(=O)CCC1CC(=O)OC", "note": "(stereo not shown) [methyl jasmonate, reference compound]", "values": [{"measurement": "expression of D251 sequence in leaf tissue", "setting": "[4]; RNA from leaf tissue of plants exposed to vapour", "result": "only cis-jasmone brought about an increase"}, {"measurement": "expression of D251 sequence in stem tissue", "setting": "[4]; RNA from stem tissue of plants exposed to vapour", "result": "upregulated to a similar level"}, {"measurement": "effect on levels of (E)-β-ocimene released", "setting": "[5]", "result": "did not significantly increase"}]}]}
